Where “and” joins values, the source holds several entries; their conditions need not be identical. Equal entries are not always repeated. Inconclusive results and toxic doses are left out. The calls were made as follows: active = survival T/C of 150% or more; inactive = T/C below 125% in these data. Peptide text beside a SMILES is read from it.
System: P388 leukemia ip, CD2F1 mice, survival T/C
Assay: NCI In Vivo Anticancer Drug Screen. Data for tumor model P388 Leukemia (intraperitoneal) in CD2F1 (CDF1) mice
Settings: endpoint: median survival time, higher = longer survival
Method in brief: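 Mice carrying the transplanted tumor received test compound or vehicle. Survival was recorded in each group, and the value is the treated-group measurement divided by that of the vehicle-treated control group.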

[1] = dose: 50.0 mg/kg/injection, schedule: Q01DX009 (ip), vehicle: saline
[2] = dose: 100.0 mg/kg/injection, schedule: Q01DX009 (ip), vehicle: saline
[3] = dose: 200.0 mg/kg/injection, schedule: Q01DX009 (ip), vehicle: saline
[4] = dose: 25.0 mg/kg/injection, schedule: Q04DX002 (ip), vehicle: saline with Tween-80
[5] = dose: 50.0 mg/kg/injection, schedule: Q04DX002 (ip), vehicle: saline with Tween-80
[6] = dose: 100.0 mg/kg/injection, schedule: Q04DX002 (ip), vehicle: saline with Tween-80
[7] = dose: 50.0 mg/kg/injection, schedule: Q01DX005 (ip), vehicle: saline with Tween-80
[8] = dose: 100.0 mg/kg/injection, schedule: Q01DX005 (ip), vehicle: saline with Tween-80
[9] = dose: 200.0 mg/kg/injection, schedule: Q01DX005 (ip), vehicle: saline with Tween-80
[10] = dose: 25.0 mg/kg/injection, schedule: Q01DX009 (ip), vehicle: Klucel (hydroxypropylcellulose) (HPC)
[11] = dose: 50.0 mg/kg/injection, schedule: Q01DX009 (ip), vehicle: Klucel (hydroxypropylcellulose) (HPC)
[12] = dose: 200.0 mg/kg/injection, schedule: Q01DX009 (ip), vehicle: Klucel (hydroxypropylcellulose) (HPC)
[13] = dose: 200.0 mg/kg/injection, schedule: Q04DX002 (ip), vehicle: saline with Tween-80
[14] = dose: 400.0 mg/kg/injection, schedule: Q04DX002 (ip), vehicle: saline with Tween-80
[15] = dose: 50.0 mg/kg/injection, schedule: Q01DX005 (ip), vehicle: Klucel (hydroxypropylcellulose) (HPC)
[16] = dose: 100.0 mg/kg/injection, schedule: Q01DX005 (ip), vehicle: Klucel (hydroxypropylcellulose) (HPC)
[17] = dose: 200.0 mg/kg/injection, schedule: Q01DX005 (ip), vehicle: Klucel (hydroxypropylcellulose) (HPC)
[18] = dose: 60.0 mg/kg/injection, schedule: Q01DX005 (ip), vehicle: saline with Tween-80
[19] = dose: 120.0 mg/kg/injection, schedule: Q01DX005 (ip), vehicle: saline with Tween-80
[20] = dose: 240.0 mg/kg/injection, schedule: Q01DX005 (ip), vehicle: saline with Tween-80
[21] = dose: 50.0 mg/kg/injection, schedule: Q01DX009 (ip), vehicle: saline with Tween-80

Measured: T/C

CCOC(=O)c1ccc2nc(/N=C/c3ccccc3Cl)sc2c1
inactive: [1] 105 % of control | [2] 108 % of control | [3] 105 % of control

C=Cn1c([N+](=O)[O-])cnc1/C=C/c1ccc(C(=O)OCCN2CCOCC2)cc1
inactive: [4] 101 % of control | [5] 101 % of control | [6] 103 % of control and 90 % of control

COCCC(=O)SCc1ccccc1
inactive: [7] 103 % of control | [8] 96 % of control | [9] 107 % of control

CN=C(N)N/N=C(\C)c1ccc2ccccc2c1
inactive: dose: 12.5 mg/kg/injection, schedule: Q04DX002 (ip), vehicle: saline 103 % of control | dose: 25.0 mg/kg/injection, schedule: Q04DX002 (ip), vehicle: saline 101 % of control | dose: 50.0 mg/kg/injection, schedule: Q04DX002 (ip), vehicle: saline 112 % of control

CSc1nc2ccc(NC(C)=O)cc2s1
inactive: dose: 12.5 mg/kg/injection, schedule: Q01DX009 (ip), vehicle: Klucel (hydroxypropylcellulose) (HPC) 111 % of control | [10] 107 % of control | [11] 102 % of control and 87 % of control | [12] 90 % of control

CC1(c2ccccc2)NN1
inactive: [6] 94 % of control | [13] 95 % of control | [14] 94 % of control

C[C@]12C=CC(=O)C=C1CC[C@@H]1[C@@H]2[C@@H](O)C[C@@]2(C)[C@H]1CC[C@]2(O)C(=O)CF
inactive: dose: 6.25 mg/kg/injection, schedule: Q01DX009 (ip), vehicle: suspension in saline 100 % of control | dose: 12.5 mg/kg/injection, schedule: Q01DX009 (ip), vehicle: suspension in saline 93 % of control | dose: 25.0 mg/kg/injection, schedule: Q01DX009 (ip), vehicle: suspension in saline 102 % of control | dose: 50.0 mg/kg/injection, schedule: Q01DX009 (ip), vehicle: suspension in saline 96 % of control

CCC(=O)C(C)C1(C(=O)OC)NC(=S)NC(=O)C1C#N (configuration not stated)
inactive: dose: 7.5 mg/kg/injection, schedule: Q01DX005 (ip), vehicle: saline with Tween-80 102 % of control | dose: 15.0 mg/kg/injection, schedule: Q01DX005 (ip), vehicle: saline with Tween-80 99 % of control | dose: 30.0 mg/kg/injection, schedule: Q01DX005 (ip), vehicle: saline with Tween-80 103 % of control

COc1ccc(-n2nnnc2N(C)c2ccccc2)cc1
inactive: dose: 50.0 mg/kg/injection, schedule: Q04DX003 (ip), vehicle: saline with Tween-80 100 % of control | dose: 100.0 mg/kg/injection, schedule: Q04DX003 (ip), vehicle: saline with Tween-80 94 % of control | dose: 200.0 mg/kg/injection, schedule: Q04DX003 (ip), vehicle: saline with Tween-80 96 % of control

CSC1=NN(C(C)=O)C(c2ccc3ccccc3n2)S1 (configuration not stated)
inactive: [15] 95 % of control | [16] 89 % of control | [17] 99 % of control

C1=C[N-]c2c3c(ccc2=C1)=CC=C[N-]3.O=S(=O)(O)O.[Zn+2]
inactive: dose: 3.12 mg/kg/injection, schedule: Q04DX002 (ip), vehicle: Klucel (hydroxypropylcellulose) (HPC) 108 % of control | dose: 6.25 mg/kg/injection, schedule: Q04DX002 (ip), vehicle: Klucel (hydroxypropylcellulose) (HPC) 100 % of control | dose: 12.5 mg/kg/injection, schedule: Q04DX002 (ip), vehicle: Klucel (hydroxypropylcellulose) (HPC) 109 % of control | dose: 25.0 mg/kg/injection, schedule: Q04DX002 (ip), vehicle: Klucel (hydroxypropylcellulose) (HPC) 111 % of control

CCCCCC(C(=O)O)(c1ccccc1)c1ccccc1
inactive: [7] 106 % of control | [8] 106 % of control | [9] 106 % of control

COC(=O)C(CC=C(C)C)C(C)=O (configuration not stated)
inactive: dose: 50.0 mg/kg/injection, schedule: Q01DX005 (ip), vehicle: saline 101 % of control | dose: 100.0 mg/kg/injection, schedule: Q01DX005 (ip), vehicle: saline 101 % of control | dose: 200.0 mg/kg/injection, schedule: Q01DX005 (ip), vehicle: saline 105 % of control

COc1ccc(-n2cnc3[nH]ncc3c2=O)cc1
inactive: dose: 7.5 mg/kg/injection, schedule: Q01DX005 (ip), vehicle: Klucel (hydroxypropylcellulose) (HPC) 104 % of control | dose: 15.0 mg/kg/injection, schedule: Q01DX005 (ip), vehicle: Klucel (hydroxypropylcellulose) (HPC) 106 % of control | dose: 30.0 mg/kg/injection, schedule: Q01DX005 (ip), vehicle: Klucel (hydroxypropylcellulose) (HPC) 110 % of control

CN1CCc2cc3c(cc2C1O)OCO3 (configuration not stated)
inactive: [7] 100 % of control | [8] 110 % of control

Cc1cc2oc3c(c2c(=O)[nH]1)C(=O)c1ccccc1C3=O
inactive: [18] 100 % of control | [19] 94 % of control | [20] 91 % of control

NC(=O)C12CCCCC1CCC(=O)C2 (configuration not stated)
inactive: dose: 2.5 mg/kg/injection, schedule: Q01DX009 (ip), vehicle: saline 100 % of control | dose: 5.0 mg/kg/injection, schedule: Q01DX009 (ip), vehicle: saline 100 % of control | dose: 10.0 mg/kg/injection, schedule: Q01DX009 (ip), vehicle: saline 100 % of control

NC(Cc1ccccc1)C(=O)NC(CC(=O)O)C(=O)O (stereo not drawn) (H-Phe-Asp-OH; configuration not given here)
inactive: [15] 99 % of control | [16] 99 % of control | [17] 109 % of control

COCC1OC2OC3C(COC)OC(OC4C(COC)OC(OC5C(COC)OC(OC6C(COC)OC(OC7C(COC)OC(OC8C(COC)OC(OC1C(O)C2O)C(O)C8O)C(O)C7O)C(O)C6O)C(O)C5O)C(O)C4O)C(O)C3O (configuration not stated) (tested in a mixture with another compound)
inactive: [10] 100 % of control and 102 % of control | [11] 99 % of control and 100 % of control | dose: 100.0 mg/kg/injection, schedule: Q01DX009 (ip), vehicle: Klucel (hydroxypropylcellulose) (HPC) 98 % of control | [12] 95 % of control and 97 % of control | dose: 400.0 mg/kg/injection, schedule: Q01DX009 (ip), vehicle: Klucel (hydroxypropylcellulose) (HPC) 93 % of control and 95 % of control

CCOC(=O)C(CC(C)C)NC(C)=O (configuration not stated)
inactive: [6] 100 % of control | [13] 105 % of control | [14] 114 % of control

O=C(/C=C/c1c(-c2ccccc2)[nH]c2ccccc12)c1cccc([N+](=O)[O-])c1
inactive: [18] 98 % of control | [19] 90 % of control | [20] 90 % of control

CC(C)N1CCN(c2ccncc2S(=O)(=O)N2CCCC2)CC1
inactive: [1] 87 % of control | [2] 99 % of control | [3] 97 % of control

CC(C)(C)[Si](C)(C)CC#C[Si](C)(C)C
inactive: [7] 104 % of control | [8] 103 % of control

CSC(/C=C1\C=Cc2ccccc2N1C)=NC#N
inactive: [4] 100 % of control | [5] 106 % of control | [6] 97 % of control

O=C(Nc1ccccc1)Oc1ccc(/C=N/Sc2cccc([N+](=O)[O-])c2)cc1
inactive: [21] 87 % of control | dose: 100.0 mg/kg/injection, schedule: Q01DX009 (ip), vehicle: saline with Tween-80 101 % of control | dose: 200.0 mg/kg/injection, schedule: Q01DX009 (ip), vehicle: saline with Tween-80 106 % of control

S=C(S)N1CCCNCC1 (tested in a mixture with another compound)
inactive: dose: 12.5 mg/kg/injection, schedule: Q01DX009 (ip), vehicle: saline with Tween-80 101 % of control and 89 % of control | dose: 25.0 mg/kg/injection, schedule: Q01DX009 (ip), vehicle: saline with Tween-80 92 % of control and 97 % of control | [21] 86 % of control and 97 % of control

O=C(c1ccc(Cl)cc1)c1cc2ccccc2oc1=O
inactive: [18] 92 % of control | [19] 93 % of control | [20] 93 % of control

CC(C)NC(C#N)C(C)C (configuration not stated)
inactive: dose: 3.12 mg/kg/injection, schedule: Q01DX005 (ip), vehicle: Klucel (hydroxypropylcellulose) (HPC) 99 % of control | dose: 6.25 mg/kg/injection, schedule: Q01DX005 (ip), vehicle: Klucel (hydroxypropylcellulose) (HPC) 108 % of control | dose: 12.5 mg/kg/injection, schedule: Q01DX005 (ip), vehicle: Klucel (hydroxypropylcellulose) (HPC) 102 % of control
